From the supplement of paper PMC11208160

Experiment: recombinant barcode read abundance after kanamycin selection (control-corrected) (log10(CPM+1)); higher = more efficient recombination; sequences stand for … in AGTGCAGAGAAAATCGGCCAGTTTTCTCTGCCTGCAGTCCGCATGCCGT…AGATTTATGCAGCGGACTGCCTTTCTCCCAAAGTGATAAACCGGACAGTATCATGGACCGGTTTTCCCGGTAATCCGTATTTGCAAGGTTGGTTTCACT; site = the 11-nt target
Outline: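 Recombination efficiency was calculated from barcode counts at recombinant junctions, normalized to counts per million, averaged and corrected by the control. Each value is given as log10(CPM+1). The constructs were Gibson-cloned oligos (promoter, target, barcode, J23119-driven first 104 bridge RNA bases) in a vector with the remaining 73 bp and a T7-inducible recombinase, co-electroporated into E. coli with a donor plasmid and plated in duplicate on chloramphenicol/ampicillin LB agar (control) or chloramphenicol/ampicillin/kanamycin with 0.1 mM IPTG.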
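Also: IS621 recombinase and bridge RNA in Escherichia coli cells.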

Sequence	recombinant barcode read abundance (log10)
ATGGTGCCTTGGGTTCTAACCTGTTGCCT (site ATGGTGACTAG)	0.098
ATGGTGCCTTGGGTTCTAACCTGTTGCCT (site ATGGTGCCTAG)	2.65
ATGGTGCCTTGGGTTCTAACCTGTTGCCT (site ATGGTGGCTAG)	0.417
ATGGTGCCTTGGGTTCTAACCTGTTGCCT (site ATGGTGTCTAG)	2.03
ATGTAGGCTTGGGTTCTAACCTGTTGCCT (site ATGTAGGCTAG)	0.137
ATGTAGGCTTGGGTTCTAACCTGTTGCCT (site ATGTTAGCTAG)	0.127
ATGTATTCTTGGGTTCTAACCTGTTGCCT (site AACTATTCTAG)	0.0758
ATGTATTCTTGGGTTCTAACCTGTTGCCT (site ATGTATTCTAG)	0.828
ATGTCGTCTTGGGTTCTAACCTGTTGCCT (site AAGTCGTCTAG)	0.0812
ATGTCGTCTTGGGTTCTAACCTGTTGCCT (site ACGTCGTCTAG)	0.296
ATGTCGTCTTGGGTTCTAACCTGTTGCCT (site AGGTCGTCTAG)	0.141
ATGTCGTCTTGGGTTCTAACCTGTTGCCT (site ATGTCGTCTAG)	1.13
ATGTCTCCTTGGGTTCTAACCTGTTGCCT (site ATGTCTCCTAG)	1
ATGTCTCCTTGGGTTCTAACCTGTTGCCT (site CTGTCTCCTAG)	0.0833
ATGTCTCCTTGGGTTCTAACCTGTTGCCT (site GTGTCTCCTAG)	0.0531
ATGTCTCCTTGGGTTCTAACCTGTTGCCT (site TTGTCTCCTAG)	0.228
ATTAATCCTTGGGTTCTAACCTGTTGCCT (site ATTAAATCTAG)	0.441
ATTAATCCTTGGGTTCTAACCTGTTGCCT (site ATTAATCCTAG)	0.0839
ATTACTACTTGGGTTCTAACCTGTTGCCT (site AATACTACTAG)	0.124
ATTACTACTTGGGTTCTAACCTGTTGCCT (site ACTACTACTAG)	0.0886
ATTACTACTTGGGTTCTAACCTGTTGCCT (site AGTACTACTAG)	0.343
ATTACTACTTGGGTTCTAACCTGTTGCCT (site ATTACTACTAG)	0.411

Sequence	recombinant barcode read abundance (log10)
ATTAGGGCTTGGGTTCTAACCTGTTGCCG (site ATTAGGGCTCG)	0.413
ATTAGGGCTTGGGTTCTAACCTGTTGCCG (site ATTGGGGCTCT)	0.192
ATTCAAACTTGGGTTCTAACCTGTTGCCT (site ATTCAAACTAG)	0.788
ATTCAAACTTGGGTTCTAACCTGTTGCCT (site GTTCAAACTAT)	0.088
ATTCGGGCTTGGGTTCTAACCTGTTGCGT (site ATTCGAGCTGC)	0.0603
ATTCGGGCTTGGGTTCTAACCTGTTGCGT (site ATTCGGGCTAC)	2.07
ATTGGGTCTTGGGTTCTAACCTGTTGCCT (site ATTGGATCTAG)	0.445
ATTGGGTCTTGGGTTCTAACCTGTTGCCT (site ATTGGCTCTAG)	0.0688
ATTGGGTCTTGGGTTCTAACCTGTTGCCT (site ATTGGGTCTAG)	0.818
ATTGGGTCTTGGGTTCTAACCTGTTGCCT (site ATTGGTTCTAG)	0.102
ATTTAACCTTGGGTTCTAACCTGTTGCGT (site ATTTAACCTAC)	2.11
ATTTAACCTTGGGTTCTAACCTGTTGCGT (site GGGGTGTCTCG)	0.0805
ATTTCGACTTGGGTTCTAACCTGTTGCCT (site AATTCGACTAG)	0.0716
ATTTCGACTTGGGTTCTAACCTGTTGCCT (site ACTTCGACTAG)	0.044
ATTTCGACTTGGGTTCTAACCTGTTGCCT (site AGTTCGACTAG)	0.142
ATTTCGACTTGGGTTCTAACCTGTTGCCT (site ATTTCGACTAG)	0.16
CAAACATCTTGGGTTCTAACCTGTTGCCT (site CAAACAACTAG)	0.129
CAAACATCTTGGGTTCTAACCTGTTGCCT (site CAAACACCTAG)	0.0425
CAAACATCTTGGGTTCTAACCTGTTGCCT (site CAAACAGCTAG)	0.0169
CAAACATCTTGGGTTCTAACCTGTTGCCT (site CAAACATCTAG)	0.162
CAAACTACTTGGGTTCTAACCTGTTGCCA (site CAAACTACTTG)	0.0171
CAAACTACTTGGGTTCTAACCTGTTGCCA (site TTGCGGCCTCT)	0.078

Sequence	recombinant barcode read abundance (log10)
CAAAGAGCTTGGGTTCTAACCTGTTGCTG (site CAAAGAGCTCA)	1.38
CAAAGAGCTTGGGTTCTAACCTGTTGCTG (site GTCCAGCCTGT)	0.0339
CAAAGTCCTTGGGTTCTAACCTGTTGCAT (site CAAAGTCCTAA)	0.191
CAAAGTCCTTGGGTTCTAACCTGTTGCAT (site CAAAGTCCTAC)	0.0225
CAAAGTCCTTGGGTTCTAACCTGTTGCAT (site CAAAGTCCTAG)	0.59
CAAAGTCCTTGGGTTCTAACCTGTTGCAT (site CAAAGTCCTAT)	1.46
CAAAGTCCTTGGGTTCTAACCTGTTGCGT (site CAAAGTCCTAA)	0.128
CAAAGTCCTTGGGTTCTAACCTGTTGCGT (site CAAAGTCCTAC)	2.24
CAAAGTCCTTGGGTTCTAACCTGTTGCGT (site CAAAGTCCTAG)	0.294
CAAAGTCCTTGGGTTCTAACCTGTTGCGT (site CAAAGTCCTAT)	0.932
CAAATTACTTGGGTTCTAACCTGTTGCCT (site CAAATTACTAG)	0.0574
CAAATTACTTGGGTTCTAACCTGTTGCCT (site CAGATGACTAG)	0.161
CAACCTTCTTGGGTTCTAACCTGTTGCCT (site CAACCTTCTAG)	0.7
CAACCTTCTTGGGTTCTAACCTGTTGCCT (site CTACCTTCTAG)	0.025
CAAGACCCTTGGGTTCTAACCTGTTGCCT (site CAAGACCCTAG)	2.5
CAAGACCCTTGGGTTCTAACCTGTTGCCT (site CACGACCCTAG)	0.763
CAAGACCCTTGGGTTCTAACCTGTTGCCT (site CAGGACCCTAG)	1.05
CAAGACCCTTGGGTTCTAACCTGTTGCCT (site CATGACCCTAG)	1.17
CAAGAGTCTTGGGTTCTAACCTGTTGCTT (site CAAGAGTCTAA)	2.26
CAAGAGTCTTGGGTTCTAACCTGTTGCTT (site CGAGAGACTAA)	0.178
CAAGGGACTTGGGTTCTAACCTGTTGCGG (site CAAGGGACTCC)	2.33
CAAGGGACTTGGGTTCTAACCTGTTGCGG (site CAGGGGACTCG)	0.0306

Sequence	recombinant barcode read abundance (log10)
CAAGTCCCTTGGGTTCTAACCTGTTGCCT (site AAAGTCCCTAG)	0.0441
CAAGTCCCTTGGGTTCTAACCTGTTGCCT (site CAAGTCCCTAG)	1.9
CAAGTCCCTTGGGTTCTAACCTGTTGCCT (site GAAGTCCCTAG)	0.207
CAAGTCCCTTGGGTTCTAACCTGTTGCCT (site TAAGTCCCTAG)	0.211
CAAGTCGCTTGGGTTCTAACCTGTTGCCT (site CAAGTAGCTAG)	0.219
CAAGTCGCTTGGGTTCTAACCTGTTGCCT (site CAAGTCGCTAG)	1.29
CAAGTCGCTTGGGTTCTAACCTGTTGCCT (site CAAGTGGCTAG)	0.458
CAAGTCGCTTGGGTTCTAACCTGTTGCCT (site CAAGTTGCTAG)	0.0227
CAATCCTCTTGGGTTCTAACCTGTTGCCT (site AAATCCTCTAG)	0.0785
CAATCCTCTTGGGTTCTAACCTGTTGCCT (site CAATCCTCTAG)	1.2
CAATCCTCTTGGGTTCTAACCTGTTGCCT (site GAATCCTCTAG)	0.0242
CAATCCTCTTGGGTTCTAACCTGTTGCCT (site TAATCCTCTAG)	0.127
CAATCCTCTTGGGTTCTAACCTGTTGCTA (site CAATCCTCTTA)	0.443
CAATCCTCTTGGGTTCTAACCTGTTGCTA (site TCTGTAACTAG)	0.0981
CAATGGCCTTGGGTTCTAACCTGTTGCCT (site CAAAGGCCTAG)	0.126
CAATGGCCTTGGGTTCTAACCTGTTGCCT (site CAACGGCCTAG)	0.253
CAATGGCCTTGGGTTCTAACCTGTTGCCT (site CAAGGGCCTAG)	0.27
CAATGGCCTTGGGTTCTAACCTGTTGCCT (site CAATGGCCTAG)	0.571
CACAAAGCTTGGGTTCTAACCTGTTGCCT (site CACAAAGCTAG)	0.84
CACAAAGCTTGGGTTCTAACCTGTTGCCT (site CACACAGCTAG)	0.143
